Data reported in the OPERA property sets (Mansouri et al. 2018).

Row | SMILES | logP
1 | CC1(C)N=C(N)N=C(N)N1c1ccc(N)cc1 | -0.59
2 | CSc1nnc(C2CCCCO2)c(=O)n1N (stereo not given) | 0.38
3 | CCCCCCCC1(CC)C(=O)NC(=O)NC1=O | 2.91
4 | NC(=O)Nc1cnc2ccccc2n1 | 1.3
5 | O=C(O)C1c2ccccc2Cc2ccccc21 | 2.78
6 | S=c1[nH]cnc2[nH]cnc12 | 0.01
7 | CNc1cc(Cc2cnc(N)nc2N)cc(N(C)C)c1OC | 1.56
8 | N#Cc1ccc([N+](=O)[O-])n1CCO | 0.6
9 | S=C=Nc1ccc(-c2ccc(N=C=S)cc2)cc1 | 5.5
10 | CN(C)N=Nc1ccc(S(N)(=O)=O)cc1 | 1.06
11 | Cc1ccc(CN(C)N=Nc2ccc(C(=O)O)cc2)cc1 | 4.75
12 | Cn1ncc2c([N+](=O)[O-])cc([N+](=O)[O-])cc21 | 1.63
13 | O=NN(CCCl)C(=O)NC1CSCSC1 | 2.08
14 | CCCCOC(=O)N(CCCC)SN(C)C(=O)ON=C(C)SC | 4.2
15 | COC12C(COC(N)=O)C3=C(C(=O)C(C)=C(N)C3=O)N1CC1C2N1COC(=O)c1ccccc1 (stereo not given) | 1.26
16 | CSc1nc2ccc(Cl)cc2[nH]1 | 3.22
17 | CCCc1nnc(SC)n(N)c1=O | 0.93
18 | CCN1C(=O)SC(=Cc2ccc([N+](=O)[O-])o2)C1=O | 2.29
19 | CC(=O)Nc1cc(C(F)(F)F)cc(C(F)(F)F)c1Br | 3.51
20 | CCCS(=O)(=O)c1cc(OC)c(OC)c(OC)c1 | 1.56
21 | O=C1C=C(Nc2ccccc2)C(=O)c2ccccc21 | 2.84
22 | CCNC(=O)CNC(=O)C=[N+]=[N-] | -0.62
23 | O=S(=O)(Nc1cccc(Br)c1)C(F)(F)F | 3.82
24 | CCC(=O)N(C)c1ccc(S(=O)(=O)N(C)C)cc1 | 0.71
25 | Clc1ccc(Cl)c(N=C2NCCN2)c1 | 2.04

Row | SMILES | logP
26 | NC1CC2CC1c1cc(C(F)(F)F)ccc12 (stereo not given) | 3.19
27 | CCCOC(=O)NC | 0.95
28 | COP(=O)(OC)Oc1ccccc1 | 1.22
29 | CCOC(=O)CN(C(=O)CCl)c1ccccc1Cl | 2.3
30 | O=C(O)CCN1C(=O)C=CC1=O | 0.04
31 | OCC1OC(Sc2ccccc2)C(O)C(O)C1O (stereo not given) | -0.56
32 | CC1=Nc2ccc(S(=O)(=O)N(C)C)cc2S(=O)(=O)N1 | 0.32
33 | Clc1ccc(N=C2NCCN2)c(Cl)c1 | 1.96
34 | CCOc1cc(Cc2cnc(N)nc2N)cc(OCC)c1N | 1.69
35 | COc1cc(Cc2cnc(N)nc2N)ccc1Nc1ccccc1 | 3.42
36 | Cc1c[n+]([O-])c2ccccc2c1[N+](=O)[O-] | 1.06
37 | Cc1cnc2ccccn2c1=O | 0.77
38 | CNC(=O)c1ccccc1/N=N/N(C)C | 1.83
39 | O=C(O)CCCCCn1nnc2ccccc21 | 0.86
40 | Nc1nc(N)nc(-c2cc(Cl)ccc2F)n1 | 1.81
41 | N#Cc1ccc(NS(=O)(=O)c2ccc(N)cc2)cc1 | 1.83
42 | COc1ccc(Cc2cnc(N)nc2N)c(OC)n1 | 2.01
43 | CCOc1cc(Cc2cnc(N)nc2N)cc(OCC)c1C(C)=O | 2.04
44 | O=C(Cn1ccnc1[N+](=O)[O-])NCCO | -1.34
45 | CN(C)N=Nc1cccc(C(=O)O)c1 | 2.03
46 | NC(=O)COCc1ccco1 | -0.11
47 | c1ccc(Nc2ccccn2)cc1 | 2.75
48 | CCC(C)C1=Nc2ccc(Cl)cc2S(=O)(=O)N1 (stereo not given) | 2.47
49 | NC(=O)NC1OC(=O)c2ccccc21 (stereo not given) | 0.49
50 | CCOC(=O)CCCCCn1nnc2ccccc21 | 2.68

Row | SMILES | logP
51 | COCN1C(=O)CN=C(c2ccccc2)c2cc(N)ccc21 | 1.32
52 | O=C1O[C@@H](O)c2ccccc21 | 0.57
53 | CN(C)N=Nc1ccc(NC(N)=O)cc1 | 1.25
54 | COc1cc(Cc2cnc(N)nc2N)ccc1C(C)(C)O | 1.38
55 | CCCCN(C)CCS(=O)(=O)c1cc(OC)c(OC)c(OC)c1 | 2.05
56 | COc1ccc(Cc2cnc(N)nc2N)cc1Cl | 1.65
57 | CC=CCOC(=O)C1C(C=C(C)C)C1(C)C (stereo not given) | 5.09
58 | COc1cc(OC)c(OC)cc1Cc1cnc(N)nc1N | 1.17
59 | O=C1CCC(=O)N1c1cccc(C(F)(F)F)c1 | 1.26
60 | COc1ccc(NS(=O)(=O)C(F)(F)F)cc1 | 3
61 | Cc1nnc(N)o1 | -0.92
62 | CSc1ccc2c(c1)C(c1ccccc1)=NCC(=O)N2 | 2.92
63 | CCCCCCCCCC[n+]1ccccc1.[Br-] | -0.72
64 | CCOC(=O)C(C#N)=NNc1cccc(Cl)c1 | 3.94
65 | S=C=NCc1ccc2ccccc2c1 | 4.42
66 | CNP(=O)(OC)Oc1ccc(C(C)(C)C)cc1 (stereo not given) | 2.71
67 | O=C(Nc1n[nH]c(NC(=O)C(F)(F)F)n1)C(F)(F)F | 0.62
68 | O=C(O)Cc1ccc(OCc2ccccc2)c(Cl)c1 | 3.43
69 | COc1cc(C)nc2ccccc12 | 2.81
70 | CC1CN(N=O)CC(C)N1N=O (stereo not given) | 0.08
71 | CN(C)c1nc2ccccc2o1 | 2.1
72 | O=C1CCC2CCCCC2C1 (stereo not given) | 1.97
73 | FC1C(Cl)C(Cl)C(Cl)C(Cl)C1Br (stereo not given) | 3.28
74 | Oc1ccc(C(c2ccc(O)cc2)c2ccccn2)cc1 | 2.84
75 | O=S1(=O)NC=Nc2cc(Cl)ccc21 | 1.01

Row | SMILES | logP
76 | Clc1ccc(-c2ccc(Cl)c(Cl)c2Cl)c(Cl)c1 | 6.61
77 | S=C=Nc1ccc(N=Nc2ccccc2)cc1 | 5.55
78 | O=C1CCC(=O)N1c1ccc(Cl)cc1 | 0.96
79 | Cc1cccc(C)c1C(=N)c1ccccc1 | 3.53
80 | CCN(CC)CCCNC(=O)c1ccccc1 | 1.56
81 | CC(=O)C(C#N)=NNc1cc(C(F)(F)F)ccc1Cl | 5.08
82 | CC(=O)N(C)c1c(I)c(C(=O)NCC(O)CO)c(I)c(C(=O)NCC(O)CO)c1I (stereo not given) | -2.06
83 | Cc1cccc(C)c1NC(=O)CN(C)C | 0.94
84 | Cc1cccc(NC(=O)CN2CCCCC2)c1 | 2.97
85 | N#Cc1ccc(C=CNC=O)cc1 | 1.62
86 | Cn1cnc([N+](=O)[O-])c1S(=O)(=O)Oc1ccccc1 | 1.08
87 | Nc1cc([N+](=O)[O-])cc(Cl)c1O | 1.53
88 | CSC(C)=NOC(=O)N(C)SN(C)C(=O)C1CC1 | 1.7
89 | COc1ccc(OC2OC(CO)C(O)C(O)C2O)cc1 (stereo not given) | -0.73
90 | O=[N+]([O-])c1nccn1C1OC(CO)C(O)C(O)C1O (stereo not given) | -1.4
91 | Clc1cc2ccccc2nn1 | 1.57
92 | O=c1ccnc2ccccn12 | 0.2
93 | COC1OCC(O)C(NC(=O)N(C)N=O)C1O (stereo not given) | -1.08
94 | CC1CN(C)C(=Nc2ncc([N+](=O)[O-])s2)N1 (stereo not given) | 1.95
95 | CC1(C)N=C(N)N=C(N)N1c1ccc(C(F)(F)F)cc1 | 1.22
96 | NC1CC2OC1c1ccccc12 (stereo not given) | 0.75
97 | Nc1cnccn1 | -0.07
98 | CCOC(=O)C(=Cc1ccccc1OC)C(=O)OCC | 3.29
99 | COC12C(COC(N)=O)C3=C(C(=O)C(C)=C(N)C3=O)N1CC1C2N1C(=O)Cc1ccccc1 (stereo not given) | 1.15
100 | CC(=O)C(C#N)=NNc1ccccc1Cl | 4

Row | SMILES | logP
101 | OCC1OC(SCCCc2ccccc2)C(O)C(O)C1O (stereo not given) | 0.38
102 | CC(=O)OCC1=C(C(=O)O)N2C(=O)C(NC(=O)C(O)c3ccccc3)C2SC1 (stereo not given) | -0.44
103 | O=C(O)COc1ccc(Cl)c(C(=O)O)c1 | 1.07
104 | NC(=O)CCn1nnc2ccccc21 | 0.27
105 | NNC(=O)c1ccc(Br)cc1 | 1.28
106 | O=[N+]([O-])c1cnc(N=C2NCCN2)s1 | 1.38
107 | COc1cc(Cc2cnc(N)nc2N)cc(OCc2ccccc2)c1OCc1ccccc1 | 4.09
108 | NC(=O)Nc1ccc(Oc2ccc(Br)cc2)cc1 | 3.7
109 | CC(C)c1ccc(C(O)C(CO)NC(=O)C(Cl)Cl)cc1 (stereo not given) | 2.24
110 | CC1=Nc2c(I)cc(Cl)cc2S(=O)(=O)N1 | 1.81
111 | C=Cc1cnc([N+](=O)[O-])n1C | 0.64
112 | CN(C)c1cccc(C(N)=O)c1 | 0.95
113 | CCOC(=O)C(=Cc1cccc(Cl)c1)C(=O)OCC | 3.49
114 | COCN1C(=O)C(O)N=C(c2ccccc2)c2cc(N)ccc21 (stereo not given) | 0.75
115 | CCC(CC)(C(N)=O)c1ccc2c(c1)OCO2 | 1.59
116 | CCNC1=NC(=O)C(=Cc2ccc([N+](=O)[O-])o2)S1 | 1.16
117 | COC(=O)C(C#N)=NNc1ccc(SC(F)(F)F)cc1 | 4.3
118 | CC(=O)C(C#N)=NNc1ccc(Cl)cc1C | 4.28
119 | N#Cc1cc(OCC(=O)O)ccc1Cl | 1.56
120 | OCCCCCn1nnc2ccccc21 | 1.51
121 | CC1=NS(=O)(=O)c2c(Cl)cccc2N1 | 0.62
122 | O=C(O)COc1ccc(N=Nc2ccccc2)cc1 | 2.99
123 | CCOc1ccc(OC(C)=O)cc1 | 1.95
124 | O=C(O)COc1ccccc1-c1ccccc1 | 2.83
125 | O=C1CCC(=O)N1c1ccc(C(F)(F)F)cc1 | 1.45

Row | SMILES | logP
126 | Cc1ccnc2c(O)ccc(C)c12 | 2.71
127 | CCOP(=S)(OCC)Oc1ccc(S(C)(=O)=O)cc1 | 2.56
128 | CN(C)CNC(=O)c1ccccc1 | 0.63
129 | COc1cc(C)n(-c2cc(C)nc(C)n2)n1 | 2.6
130 | OCCCCCCn1nnc2ccccc21 | 1.71
131 | CC(C)C(=O)N(C)SN(C)C(=O)Oc1cccc2c1OC(C)(C)C2 | 3.6
132 | COc1ccc(N2C(N)=NC(N)=NC2(C)C)cc1 | 0.4
133 | N#Cc1cccc(N2C(=O)CCC2=O)c1 | 0.02
134 | CN1CCN(N=O)CC1 | 0.2
135 | CCCCCCCCCCCC[n+]1ccc(C)cc1C.[I-] | 1.41
136 | CCCCCc1nnc(N)o1 | 1.1
137 | CCNP(=O)(OC)SC (stereo not given) | 0.07
138 | COC(=O)c1c(OC)cc(Cc2cnc(N)nc2N)cc1OC | 0.95
139 | COC(=O)C(C#N)=NNc1c(Cl)cc(C(F)(F)F)cc1Cl | 4.36
140 | CO[C@@]12[C@@H]3N[C@@H]3CN1C1=C(C(=O)C(Nc3nc(C)c(C)s3)=C(C)C1=O)[C@@H]2COC(N)=O | 1.29
141 | COc1cc(Cc2cnc(N)nc2N)cc(C)c1OC | 1.62
142 | O=C1CN=C(c2ccccc2[N+](=O)[O-])c2cc([N+](=O)[O-])ccc2N1 | 1.61
143 | CC(C)c1cccc(OC2OC(CO)C(O)C(O)C2O)c1 (stereo not given) | 0.65
144 | NC(=O)c1[nH]cnc1/N=N/N(CCO)CCO | -1.09
145 | CC1CNC(=Nc2ncc([N+](=O)[O-])s2)N1 (stereo not given) | 1.82
146 | S=C=Nc1ccc(Nc2ccccc2)cc1 | 4.94
147 | O=S1(=O)NC(C2CC2)=Nc2cc(Cl)ccc21 | 1.98
148 | CC(C)(C)C(=O)C(C#N)=NNc1cccc(Cl)c1 | 4.62
149 | O=C(O)c1ccccc1Nc1cccc(O)c1 | 3.49
150 | CSc1nc2nc(SC)[nH]c(Cl)c-2n1 | 0.63
